Literature values as cited in patent US20210023041A1, “FORMULATIONS AND COMPOSITIONS OF DOCETAXEL” (Zhuhai Beihai Biotech Co., Ltd., priority 2018, published 2021).

Experiments:
[1] = tested on: plasma proteins
[2] = tested on: microtubule

- solubility in water: practically insoluble in water
- in vitro binding to plasma proteins ([1]; in three cancer patients): approximately 97%
- protein bound ([1]; in vitro studies, mainly to α1-acid glycoprotein, albumin, and lipoproteins): about 94%
SMILES: CC(=O)O[C@@]12CO[C@@H]1C[C@H](O)[C@@]1(C)C(=O)[C@H](O)C3=C(C)[C@@H](OC(=O)[C@H](O)[C@@H](NC(=O)OC(C)(C)C)c4ccccc4)C[C@@](O)([C@@H](OC(=O)c4ccccc4)[C@H]21)C3(C)C [Docetaxel]
- potency in inhibiting microtubule depolymerization relative to paclitaxel [2]: twice as potent as paclitaxel
